Experimental data published in article PMC4164441, “The Characterisation of an Alkali-Stable Maltogenic Amylase from Bacillus lehensis G1 and Improved Malto-Oligosaccharide Production by Hydrolysis Suppression” (PLoS ONE, 2014).

Target: T1, MAG1 (Shouchella lehensis, UniProt X5CPN2)
T1 construct: gene BleG1_0772; full-length ORF, 582 residues, pET21a(+) in E. coli BL21(DE3), Ni-NTA purified, tag kept (His-tag western); 68 kDa SDS-PAGE; monomer/dimer mixture; primers start MNRAGII
Test: DNS reducing sugar assay, Lineweaver-Burk plot
Format: biochemical
Conditions: 50 mM potassium phosphate pH 7.0, 40°C; hydrolysis; read-out: Km (mg ml^-1) (converted)
Source text: DNS reducing sugar assay, Lineweaver-Burk plot on MAG1

T1 sequence (X5CPN2 entry or part of it): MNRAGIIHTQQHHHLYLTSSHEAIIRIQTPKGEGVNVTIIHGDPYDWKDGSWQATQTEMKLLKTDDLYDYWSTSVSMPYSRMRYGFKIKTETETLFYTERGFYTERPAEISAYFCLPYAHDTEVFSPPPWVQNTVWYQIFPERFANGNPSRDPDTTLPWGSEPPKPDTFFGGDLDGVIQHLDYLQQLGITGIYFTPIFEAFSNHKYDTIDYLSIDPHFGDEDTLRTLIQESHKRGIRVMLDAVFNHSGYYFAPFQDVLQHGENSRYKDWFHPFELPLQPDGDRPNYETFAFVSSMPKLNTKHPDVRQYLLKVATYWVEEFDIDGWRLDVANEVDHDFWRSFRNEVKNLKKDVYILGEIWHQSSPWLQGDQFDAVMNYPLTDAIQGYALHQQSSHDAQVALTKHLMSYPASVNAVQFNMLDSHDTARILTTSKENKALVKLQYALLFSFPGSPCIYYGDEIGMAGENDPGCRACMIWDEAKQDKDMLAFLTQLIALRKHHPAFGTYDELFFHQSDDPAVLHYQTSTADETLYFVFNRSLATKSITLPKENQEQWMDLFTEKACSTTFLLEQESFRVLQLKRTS

Km: 1120 µM
SMILES: OC[C@H]1O[C@@H]2O[C@H]3[C@H](O)[C@@H](O)[C@@H](O[C@H]4[C@H](O)[C@@H](O)[C@@H](O[C@H]5[C@H](O)[C@@H](O)[C@@H](O[C@H]6[C@H](O)[C@@H](O)[C@@H](O[C@H]7[C@H](O)[C@@H](O)[C@@H](O[C@H]8[C@H](O)[C@@H](O)[C@@H](O[C@H]1[C@H](O)[C@H]2O)O[C@@H]8CO)O[C@@H]7CO)O[C@@H]6CO)O[C@@H]5CO)O[C@@H]4CO)O[C@@H]3CO [β-CD]
